Experimental data from patent publication US20110318380A1, “MHC Multimers in Cancer Vaccines and Immune Monitoring” (priority 2008, published 2011).
Where two headings read alike, the source gives them in different places. Each block holds one substance with its values, some of them ahead of it.

What was measured:
T2 cells = conditions: cited from earlier work
[1] = system: PBL from a breast cancer patient; conditions: with vs without peptide; in doublets; cited from earlier work
[2] = molecular target: Bcl-X(L)173-182 specific CD8 T cells in PBL from a breast cancer patient; experiment: flow cytometry of PBL ex vivo, APC dextramer with 7-AAD, CD3 and CD8; compared with an HIV specific dextramer as negative control
[3] = molecular target: purified folded MHC-complex (Example 37)

Substance: GLQHWVPEL (Irrelevant peptide) [BA4697-105, irrelevant peptide loaded on T2 target cells, reference compound]
lysis of peptide-pulsed T2 cells (T2 cells; Clone 8, 9, 10, 11, and 12): without killing

Substance: YLNDHLEPWI (listed as Homo Sapiens)
lysis of peptide-pulsed T2 cells (T2 cells; Clone 7, 13, 15, 17, and 18): did not show specific lysis | lysis of peptide-pulsed T2 cells (T2 cells; Clone 8, 9, 10, 11, and 12): effectively lysed | cell lysis of T2 cells pulsed with different concentrations of peptide (T2 cells; clone 9, E:T ratio 1:1): significant even at low concentrations | cell lysis of peptide-pulsed T2 cells (T2 cells; clone 9, specific vs irrelevant peptide, three E:T ratios): necessary to get killing of the target cell | number of spots (IFN-gamma producing T-cells) [1]: clearly shows the presence of BclX(L) specific T-cells

level of dextramer positive CD-8 cells in the patient sample [2]: 0.03%
Substance: dextramer complex HLA-A2/Bcl-X(L)173-182-APC (from UniProt P61769 21-119) (peptide-MHC)

Substance: W6/32 mouse-anti-HLA-ABC antibody (Dako M0736)
OD450 ratio to the negative control β2m [3]: > 6 fold
